“Also recorded” adds a separate entry of the source. One block for each molecule: values may come before it. Non-standard residues stand in square brackets, D forms with d. 2Nal = N[C@@H](Cc1ccc2ccccc2c1)C(=O)O
Legend:
[1] = target: T1, hGIIA binding to full length vimentin (Homo sapiens, UniProt P08670); assay: Colorimetric enzyme immunoassay (EIA) of inhibitor effect on the hGIIA-vimentin interaction, full length vimentin; conditions: immobilised full length vimentin, hGIIA 250 ng/mL, inhibitors 5-100 μM, FIG. 2B top panel
T1 construct: His6 tag (HHHHHH) from pET15b (N); thrombin cleavage site (LVPRGS) (N); made in house; host or cells: vimentin: Rosetta 2 E. coli (pET15b)
Experimental: (§1) Purified vimentin protein solutions (full length, coil 1 or coil 2 fragments) were diluted to 10-20 μg/mL concentration in PBS and seeded to a 96-well microplate with a 100 μL/well volume. After an overnight incubation at 4° C., the plate was emptied. Each well was then blocked with 200 μL of 1% BSA in PBS. The blocked plate was incubated for at least an overnight period at 4° C. and used within 1 week.

[2] = tested on: LNCaP prostate cancer cells; assay: Murine prostate cancer xenograft model; assay type: in vivo, male Balb/c nu/nu mice; conditions: c2 0.1 mg/kg in saline thrice weekly, eight-week period, compared to vehicle
Experimental: Animals (male Balb/c nu/nu mice, aged six weeks, n=15 per group) were injected subcutaneously in the right rear flank with 1×10^6 LNCaP prostate cancer cells. Tumour size was monitored with calipers measuring tumour width and length and tumour volume calculated as described (Sved et al., Cancer Res, 2004. 64(19): p. 6934-40). When tumours were palpable and measured >5×5 mm, animals were randomised and entered into the study. […] Tumour volume data are mean±SE.

[3] = target: T2, vimentin coil 1 fragment (residues 96 to 253), recombinant, His-tagged (human, UniProt P08670 96-253); assay: EIA, plate-bound vimentin coil 1, detection with 4A1-AP
T2 construct: Removal of the tag is not reported; also called coil 1 segment
Experimental: as §1

T2 sequence (P08670 other isoform, or with tags, fused parts or gaps): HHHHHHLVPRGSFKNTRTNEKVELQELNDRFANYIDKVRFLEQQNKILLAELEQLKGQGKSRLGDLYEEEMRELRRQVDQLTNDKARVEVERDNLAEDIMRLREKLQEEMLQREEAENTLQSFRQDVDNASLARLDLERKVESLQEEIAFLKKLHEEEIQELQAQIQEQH
T1 sequence (P08670 whole entry): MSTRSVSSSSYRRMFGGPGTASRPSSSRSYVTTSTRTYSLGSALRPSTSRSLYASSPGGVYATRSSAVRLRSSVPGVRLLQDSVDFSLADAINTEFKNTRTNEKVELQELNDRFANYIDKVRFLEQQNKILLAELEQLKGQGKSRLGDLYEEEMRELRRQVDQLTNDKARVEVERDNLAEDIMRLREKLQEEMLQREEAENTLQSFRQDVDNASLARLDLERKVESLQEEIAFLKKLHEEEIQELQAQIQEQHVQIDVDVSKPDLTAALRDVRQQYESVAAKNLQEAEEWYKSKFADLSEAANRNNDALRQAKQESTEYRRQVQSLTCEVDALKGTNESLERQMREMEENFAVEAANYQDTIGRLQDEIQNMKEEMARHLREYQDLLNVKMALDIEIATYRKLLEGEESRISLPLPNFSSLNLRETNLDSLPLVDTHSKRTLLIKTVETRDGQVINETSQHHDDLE

Molecule: CCc1c(CC(N)=O)c2cc(OCCCP(=O)(O)O)ccc2n1Cc1ccccc1 [LY311727, [3-[[3-(2-amino-2-oxoethyl)-2-ethyl-1-(phenylmethyl)-1H-indol-5-yl]oxy]propyl]-phosphonic acid]
inhibition of hGIIA binding to full length vimentin [1]: c2 exhibited greater inhibition of hGIIA binding to full length vimentin than LY311727

Molecule: cyclo-((2-Nal)-Leu-Ser-(2-Nal)-Arg) (cyclo([2Nal]LS[2Nal]R); SMILES CC(C)C[C@@H]1NC(=O)[C@H](Cc2ccc3ccccc3c2)NC(=O)[C@H](CCCNC(=N)N)NC(=O)[C@H](Cc2ccc3ccccc3c2)NC(=O)[C@H](CO)NC1=O)
growth in tumour volume [2]: significantly reduced the growth in tumour volume; also recorded: potently slows the growth of prostate cancer

binding result [3]: no binding (tested: 5-1000 ng/mL hGIIA)
B1: human group IIA secreted phospholipase A2 (hGIIA), recombinant, purified from conditioned media of CHO cell line 2B1 (enzyme)
chain: NLVNFHRMIKLTTGKEAALSYGFYGCHCGVGGRGSPKDATDRCCVTHDCCYKRLEKRGCGTKFLSYKFSNSGSRITCAKQDSCRSQLCECDKAAATCFARNKTTYNKKYQYYSNKHCRGSTPRC
notes: this was not applied; also called human sPLA2-IIA; sPLA2
